Earlier results on five compounds are cited in PMC6843717 (ACS Omega, 2019).

For this series the following is noted: cited from earlier work; for bioavailability: FDA-approved small molecules for advanced breast cancer; for bioavailability (F): reported for other anticancer drugs.

In the case of `CC(=O)O[C@H]1C(=O)[C@@]2(C)[C@H]([C@H](OC(=O)c3ccccc3)[C@]3(O)C[C@H](OC(=O)[C@H](O)[C@@H](NC(=O)c4ccccc4)c4ccccc4)C(C)=C1C3(C)C)[C@]1(OC(C)=O)CO[C@@H]1C[C@@H]2O` [paclitaxel], the bioavailability is on record as around 11%.
For `O=c1cc(CN2CCOCC2)occ1OCCCCCSc1ccnc2cc(C(F)(F)F)ccc12` [EHT1864], the T1/2 (Rac inhibitor, plasma) is recorded as 1.65 h.
With `CCn1c2ccccc2c2cc(Nc3ccnc(NCCCN4CCOCC4)n3)ccc21` [EHop-016], the “bioavailability (F)” value is on record as 40%.
With `CO[C@H]1C[C@@H]2CC[C@@H](C)[C@@](O)(O2)C(=O)C(=O)N2CCCC[C@H]2C(=O)O[C@H]([C@H](C)C[C@@H]2CC[C@@H](OCCO)[C@H](OC)C2)CC(=O)[C@H](C)/C=C(\C)[C@@H](O)[C@@H](OC)C(=O)[C@H](C)C[C@H](C)/C=C/C=C/C=C/1C` [everolimus], the bioavailability is around 5%.
Consider `CS(=O)(=O)CCNCc1ccc(-c2ccc3ncnc(Nc4ccc(OCc5cccc(F)c5)c(Cl)c4)c3c2)o1` [lapatinib], for which the “bioavailability (F)” value is given as 43–50%.
